Reference: patent US8653054B2, “2-(N-substituted piperazinyl) steroid derivatives” (Universite Laval, priority 2008, dated 2014)
Like-named read-outs stand apart in the source and are kept apart here.

What was measured:
[1] = tested on: MCF-7 breast cancer cells; assay: Cell proliferation assay (MTS) on MCF-7 breast cancer cells; assay type: cell-based, human; conditions: Table 3, 3 days incubation
Protocol: MCF-7 breast cancer cells were maintained in Dulbecco's Modified Eagle's Medium (DMEM) containing a nutriment mixture F-12 ham (DME-F12) (Sigma, Saint Louis, USA) supplemented with 5% (v/v) fetal bovine serum (FBS), L-glutamine ([…]), penicillin (100 IU/ml), streptomycin sulphate (50 μg/ml) and estradiol (1 nM). For the assay, DME-F12 was supplemented with 5% (v/v) charcoal-strippes FBS, insulin (50 ng/ml) and the same concentrations of antibiotics as above.

[2] = tested on: MDA-MB-231 (ER−) breast cancer cells; assay: Cell proliferation assay (MTS) on MDA-MB-231 (ER−) breast cancer cells; assay type: cell-based; conditions: Table 3, 3 days incubation
[3] = tested on: Shionogi mammary carcinoma cells (AR+); assay: Cell proliferation assay (MTS) on Shionogi mammary carcinoma cells; assay type: cell-based; conditions: Table 3, 3 days incubation
Protocol: Shionogi mammary carcinoma cells bearing androgen-sensitive (AR+) were routinely grown in Eagle's Minimal Essential Medium (MEM) (Sigma, Saint Louis, USA) supplemented with 5% (v/v) fetal bovine serum (FBS), penicillin (100 IU/ml), streptomycin sulphate (50 μg/ml), 1% (v/v) non-essential amino acids and dihydrotestosterone DHT (10^−8 M). For the assay, MEM devoid of the pH indicator phenol red was supplemented with 2% (v/v) charcoal-strippes FBS and the same concentrations of antibiotics and non-essential amino acids as above.

[4] = tested on: LNCaP prostate cancer cells; assay: Cell proliferation assay (MTS) on LNCaP prostate cancer cells; assay type: cell-based; conditions: Table 3, 3 days incubation
Protocol: (§1) The cell proliferation assay was performed using 3-(4,5-dimethylthiazol-2-yl)-5-(3-carboxymethoxyphenyl)2-(4-sulfophenyl)-2H-tetrazolium (MTS) (Cell Titer 96 Aqueous, Promega, USA). MTS is converted into water-soluble colored formazan by dehydrogenase enzymes present in metabolically active cells, which allows the measurement of the number of viable cells.
(§2) The cells were incubated at 37° C. and 5% CO2. The steroid derivatives of the present disclosure were dissolved in ethanol to prepare the 1×10^−2 M stock solutions. The stock solutions and doxorubicin (DOX) (Novapharm, Toronto, Canada) were diluted at multiple concentrations with culture media, added to each well, as indicated, and incubated for 3 days. Following each treatment, 20 μl MTS was added to each well and the mix was incubated for 4 h.

[5] = tested on: PC-3 (AR−) prostate cancer cells; assay: Cell proliferation assay (MTS) on PC-3 (AR−) prostate cancer cells; assay type: cell-based; conditions: Table 3, 3 days incubation
Protocol: (§3) All of the following cell lines were maintained under a CO2 humidified atmosphere at 37° C. The culture media were changed every 3-4 days and the cells were split once a week.
(§4) For the assay, the culture medium was the same.
as §1, §2

[6] = tested on: OVCAR-3 ovarian cancer cells; assay: Cell proliferation assay (MTS) on OVCAR-3 ovarian cancer cells; assay type: cell-based; conditions: Table 3; 3 days incubation, MTS
Excerpt: For the assay, the culture medium was the same, but without estradiol.

[7] = tested on: HL-60 acute promyelocytic leukemia cells; assay: Cell proliferation assay (MTS) on HL-60 leukemia cells; assay type: cell-based, human;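 note: cells exposed to serially diluted compound for 3 days at 37 °C, then viable cell number read via MTS conversion to coloured formazan by metabolically active cells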
Protocol: as §3, §4, §1, §2

[8] = tested on: K-562 leukemia cells; assay: Cell proliferation assay (MTS) on K-562 leukemia cells; assay type: cell-based; conditions: Table 3, 3 days incubation
Protocol: as §3, §4, §1, §2

[9] = tested on: WI-38 diploid fibroblasts; assay: Cell proliferation assay (MTS) on WI-38 normal fibroblasts; assay type: cell-based, human; conditions: Table 3, normal cells, 3 days incubation
Protocol: WI-38 diploid fibroblasts derived from embryonic human lung were cultured in MEM (devoid of the pH indicator phenol red) supplemented with 10% (v/v) FBS, L-glutamine (2 nM), penicillin (100 IU/ml), streptomycin sulphate (50 μg/ml), sodium pyruvate (1 mM) and non-essential amino acids (0.1 mM).
as §1, §2

[10] = tested on: human MCF-7 breast cancer xenografts; assay: Growth of human MCF-7 breast cancer xenografts in nude mice; assay type: in vivo; conditions: OVX nude mice, 60 mg/kg s.c. 3 times a week, E2-stimulated; FIG. 1
Protocol: MCF-7 breast cancer cells were obtained from the ATCC (Rockville, Md.) and were propagated in Dubelcco's Modified Eagle's Medium nutrient mixture F-12 ham (DME-F12) medium supplemented with 5% FBS, glutamine (2 mM), penicillin (100 IU/mL), streptomycin (100 μg/mL) and estradiol (1 nM). These cells were used to induce tumors in homozygous female nu/nu Brathymic mice (28-42 days old) that were obtained from Charles River (Saint-Constant, Canada). Bilateral ovariectomy was performed under isoflurane-induced anesthesia. At the time of ovariectomy, an implant of estradiol (E2) was inserted s.c. to stimulate initial tumor growth. E2 implants were prepared in 1 cm long Silastic tubing (inside diameter 0.062 inch, outside diameter 0.095 inch) containing 5 mm of 1:8 (w/w) mixture of E2 and cholesterol. One week after ovariectomy, 4.1×10^6 MCF-7 cells were inoculated s.c. in 0.1 mL of medium growth+30% Matrigel on both flanks of each ovariectomized (OVX) mouse through a 2.5 cm long 22-gauge needle. After approximately 5 weeks, the mice were randomly assigned to 2 groups according to tumor size. […] The size of tumors was measured by two perpendicular diameters and tumor area (mm^2) was calculated using the formula L/2×W/2×π. The area measured on the first day of treatment was taken as 100% (FIG. 1). […]

[11] = tested on: normal lymphocytes from peripheral blood; assay: Cell proliferation assay (MTS) on normal lymphocytes
Protocol: as §3, §4, §1, §2

[12] = Plasmatic concentration (AUC) of aminosteroids after a single subcutaneous injection in rat; conditions: 2.3 mg/kg
Protocol: Animals: Six to seven week-old male Sprague-Dawley rats (Crl:CD®(SD)Br VAF/Plus™) weighing approximately 220 g were obtained from Charles-River, Inc (St-Constant, Qc., Canada). The animals were acclimatized to environmental conditions (temperature: 22±3° C.; humidity: 50±20%; 12-h light/12-h dark cycles, lights on at 07:15 h) for at least 5 days before starting the experiment. The animals were housed three per cage and were allowed free access to water and a certified commercial rodent food (Rodent Diet #T.2018.15, Harlan Teklad, Madison, Wis., U.S.A.) and were randomized according to their body weight.
Assay: A pharmacokinetic study was carried out following one subcutaneous (s.c.) injection of the aminosteroids at one concentration (2.3 mg/kg of body weight in 0.5 mL of vehicle fluid). The compound was first dissolved in Ethanol (EtOH) followed by the addition of propylene glycol such that a final concentration of EtOH of 8% was obtained. During this experiment, the rats were housed individually and were fasted for 8h before injection of the aminosteroid. Blood samples for determination of aminosteroid plasma concentration were collected at the jugular vein (0.4 mL by animal) at target intervals of 3, 7, 12 and 24 h (or 3 and 12 h) post-dose from six rats per time point (Tables 5, 6 and 7). After the collect at 7 h, a replacement fluid (0.9% sodium chloride injection USP) was injected in the rat. Blood samples were collected in Microvette potassium-EDTA (ethylenediamine tetra-acetic acid)-coated tubes (Sarstedt, Aktiengesellchaft & Co, Germany) and centrifuged at 3200 rpm for 10 minutes at 4° C. The plasma was collected and stored at −80° C. until analyzed by liquid chromatography/mass spectrometry/mass spectrometry (LC/MS/MS) analysis.
Aminosteroid measurement: The concentration of the aminosteroid was determined by LC/MS/MS analysis using a procedure developed at the CHUQ (CHUL)—Research Center (Québec, Qc, Canada). Briefly, for extraction from serum, 100 νL, of the serum sample was transferred to individual tubes and 600 μL of ammonium acetate (1 mM) was added. A methanolic solution (50 μL) containing a steroidal internal standard was then added to each tube. Samples were transferred on Strata-X SPE columns (Phenomenex, Torrance, Calif., USA), which have been conditioned with 2 mL of MeOH and 2 mL of water. Each column was washed with 2 mL of MeOH:water (10:90, v/v). The aminosteroid was then eluted with 5 mL of MeOH containing 5 mM ammonium acetate. The MeOH was evaporated at 45° C. under inert atmosphere and the dried residue dissolved in 100 μL of MeOH:water (85:15, v/v). […] The inhibitor was detected using an API 3000 mass spectrometer, equipped with TurbolonSpray (Applied Biosystems, Canada). ESI in positive ion mode was used.

With `C[C@]12C[C@H](N3CCN(C(=O)[C@@H]4CCCN4C(=O)c4cccc5ccccc45)CC3)[C@@H](O)C[C@@H]1CC[C@@H]1[C@@H]2CC[C@]2(C)[C@@H](O)CC[C@@H]12` [PC-37] the IC50 [1] was 500 nM, the IC50 [2] was greater than 10000 nM and the IC50 [3] was 200 nM. The IC50 [4] was 1500 nM, the IC50 [5] was 6500 nM and the IC50 [6] was 1400 nM. The IC50 ([7]; Table 3, 3 days incubation, MTS, read-out: IC50 HL-60) was 2500 nM, the IC50 ([7]; Table 4, HL-60 cancer cell line, read-out: IC50) was 1900 nM and the IC50 ([7]; Table 6, HL-60 cancer cell line, read-out: IC50 (HL-60)) was 1900 nM. The IC50 [8] was 10600 nM, the IC50 [9] was greater than 10000 nM and the “growth of human MCF-7 breast cancer xenografts” value [10] was “reduce the growth”. The “toxicity on normal healthy lymphocytes” value ([11]; even at high concentrations (>10 μM)) was “little or no toxicity”, the IC50 ([11]; read-out: IC50 Lymph Norm., Table 3, normal lymphocytes, 3 days incubation, MTS) was 36000 nM and the “AUC (7 h)” value ([12]; Table 5, subcutaneous one time) was 337 ng·h/mL. The “AUC (24 h)” value ([12]; Table 5, subcutaneous one time) was 552 ng·h/mL, the “AUC(12 h)” value ([12]; Table 5, subcutaneous one time) was 462 ng·h/mL and the “AUC (0-3 h)” value ([12]; Table 6, subcutaneous one time) was 97 ng·h/mL. The “AUC (0-12 h)” value ([12]; Table 6, subcutaneous one time) was 429 ng·h/mL.
